Assay results from patent publication US12624034B2, “Non-covalent modifiers of AKT1 and uses thereof” (Terremoto Biosciences, Inc., priority 2023, dated 2026).
Where two headings read alike, the source gives them in different places.

Tests used:
AKT1 WT = molecular target: T1, AKT1 WT (Homo sapiens, UniProt P31749); test: Live cell AKT1 WT target engagement by NanoBRET competitive probe displacement in HEK293 cells; assay type: binding; conditions: 2 h at 37° C., read-out: AKT1 WT IC50
T1 construct: expressed in transfected cells; host or cells: HEK293
T1 sequence (P31749 whole entry): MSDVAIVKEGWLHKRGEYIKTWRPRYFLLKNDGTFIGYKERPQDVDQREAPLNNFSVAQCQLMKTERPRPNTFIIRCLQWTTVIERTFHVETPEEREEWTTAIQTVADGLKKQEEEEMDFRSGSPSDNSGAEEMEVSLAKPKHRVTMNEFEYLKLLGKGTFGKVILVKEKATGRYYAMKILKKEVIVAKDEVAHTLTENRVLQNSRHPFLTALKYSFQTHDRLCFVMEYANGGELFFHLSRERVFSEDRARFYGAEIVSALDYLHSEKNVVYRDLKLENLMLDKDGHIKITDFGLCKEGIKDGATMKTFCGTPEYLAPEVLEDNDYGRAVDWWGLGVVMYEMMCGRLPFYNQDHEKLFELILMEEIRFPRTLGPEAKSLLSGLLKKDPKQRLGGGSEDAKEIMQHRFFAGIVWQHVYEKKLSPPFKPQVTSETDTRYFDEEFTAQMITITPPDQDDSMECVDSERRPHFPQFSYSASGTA

AKT1 E17K = molecular target: T2, AKT1 E17K (Homo sapiens, UniProt P31749, E17K); test: Live cell AKT1 E17K target engagement by NanoBRET competitive probe displacement in HEK293 cells; assay type: binding; conditions: 2 h at 37° C.
T2 construct: expressed in transfected cells; host or cells: HEK293
T2 sequence (P31749 whole entry E17K): as the sequence (P31749 whole entry) above, with E17K counted along it
How it was run: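 HEK293 cells transiently expressing kinase–NanoLuciferase fusions (overnight transfection) were exposed to serially diluted compound plus a fluorescent ATP-competitive tracer at ~EC50 for 2 h at 37° C. After substrate and extracellular luciferase inhibitor, emission at 460 and 600 nm gave the BRET ratio (E600/E460); IC50 from Hill fit.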

AKT2 = molecular target: T3, AKT2 (Homo sapiens, UniProt P31751); test: Live cell AKT2 target engagement by NanoBRET competitive probe displacement in HEK293 cells; assay type: binding; conditions: 2 h at 37° C., read-out: AKT2 IC50
T3 construct: expressed in transfected cells; host or cells: HEK293
T3 sequence (P31751 whole entry): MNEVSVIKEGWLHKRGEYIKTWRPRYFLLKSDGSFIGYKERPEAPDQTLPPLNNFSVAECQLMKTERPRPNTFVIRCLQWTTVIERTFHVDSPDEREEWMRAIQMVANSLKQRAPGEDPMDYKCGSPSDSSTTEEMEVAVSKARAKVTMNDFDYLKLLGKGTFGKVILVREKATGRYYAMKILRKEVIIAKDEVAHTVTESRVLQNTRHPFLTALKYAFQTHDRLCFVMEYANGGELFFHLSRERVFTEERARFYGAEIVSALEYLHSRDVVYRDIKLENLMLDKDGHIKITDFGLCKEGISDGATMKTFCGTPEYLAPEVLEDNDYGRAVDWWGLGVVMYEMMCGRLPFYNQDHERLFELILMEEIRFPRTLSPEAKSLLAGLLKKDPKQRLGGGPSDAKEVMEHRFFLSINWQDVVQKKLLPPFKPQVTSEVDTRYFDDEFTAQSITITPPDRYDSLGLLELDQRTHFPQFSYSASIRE

[1] = system: LAPC4 prostate cancer cells, which express the AKT1 E17K allele; test: Antiproliferative effects in LAPC4 cells (CellTiter Glo, 72 h); assay type: cell-based; conditions: Homo sapiens, LAPC4, 72 h, read-out: LAPC4 proliferation IC50
How it was run: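 LAPC4 cells were cultured in IMDM with 12% FBS and 1% P/S, seeded at 1,000 cells/well and exposed to compound dilutions in DMSO. After 72 h, intracellular ATP was measured by CellTiter Glo luminescence, and IC50 values came from a log(inhibitor) vs. response Hill fit.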

[2] = NanoBRET live cell target engagement, HEK293 cells
[3] = NanoBRET competitive probe displacement, live HEK293 cells

IC50 (AKT1 WT; [2]) [µM]	IC50 (AKT1 E17K; [2]) [µM]	IC50 (AKT2; [2]) [µM]	IC50 [1] [µM]	IC50 (AKT1 WT; [3]) [µM]	IC50 (AKT1 E17K; [3]) [µM]	IC50 (AKT2; [3]) [µM]	Structure (SMILES)
0.0194	0.292	1.07	0.925	–	–	–	Nc1ncccc1-c1nc2ccc(-n3nccn3)nc2n1-c1ccc2c(c1)CC[C@@H]2NC(=O)c1ccc(C(F)F)nc1 [Compound 65, (S)—N-(5-(2-(2-aminopyridin-3-yl)-5-(2H-1,2,3-triazol-2-yl)-3H-imidazo[4,5-b]pyridin-3-yl)-2,3-dihydro-1H-inden-1-yl)-6-(difluoromethyl)nicotinamide]
0.0435	0.167	2.12	8.03	–	–	–	Nc1ncccc1-c1nc2ccc(-n3cccn3)nc2n1-c1ccc2c(c1)CC[C@@H]2NC(=O)c1cnccn1 [Compound 19, (S)—N-(5-(2-(2-aminopyridin-3-yl)-5-(1H-pyrazol-1-yl)-3H-imidazo[4,5-b]pyridin-3-yl)-2,3-dihydro-1H-inden-1-yl)pyrazine-2-carboxamide]
0.149	0.181	0.931	3.6	–	–	–	Nc1ncccc1-c1nc2ccc(-n3cccn3)nc2n1-c1ccc2c(c1)CC[C@@H]2NC(=O)c1cc[nH]c(=O)c1 [Compound 318]
0.0105	0.0444	0.0555	0.733	–	–	–	Nc1ncccc1-c1nc2ccc(-n3cccn3)nc2n1-c1ccc2c(c1)CC[C@@H]2NC(=O)c1ccc(C(F)F)nc1 [Compound 18, (S)—N-(5-(2-(2-aminopyridin-3-yl)-5-(1H-pyrazol-1-yl)-3H-imidazo[4,5-b]pyridin-3-yl)-2,3-dihydro-1H-inden-1-yl)-6-(difluoromethyl)nicotinamide]
–	–	–	2.73	0.015	0.177	0.656	Nc1ncccc1-c1nc2ccc(-n3cccn3)nc2n1-c1ccc2c(c1)CC[C@@H]2NC(=O)c1cnns1 [Compound 399]
0.00921	0.036	0.179	1.77	–	–	–	Nc1ncccc1-c1nc2ccc(-n3cccn3)nc2n1-c1ccc2c(c1)CC[C@@H]2NC(=O)c1cncnc1 [Compound 40, N-[(1S)-5-[2-(2-aminopyridin-3-yl)-5-(pyrazol-1-yl)imidazo[4,5-b]pyridin-3-yl]-2,3-dihydro-1H-inden-1-yl]pyrimidine-5-carboxamide]
0.00461	0.39	0.0466	1.2	–	–	–	COc1ncc(C(=O)N[C@H]2CCc3cc(-n4c(-c5cccnc5N)nc5ccc(-n6cccn6)nc54)ccc32)cn1 [Compound 23, (S)—N-(5-(2-(2-aminopyridin-3-yl)-5-(1H-pyrazol-1-yl)-3H-imidazo[4,5-b]pyridin-3-yl)-2,3-dihydro-1H-inden-1-yl)-2-methoxypyrimidine-5-carboxamide]
0.00407	0.0256	0.019	0.585	–	–	–	COc1ccc(C(=O)N[C@H]2CCc3cc(-n4c(-c5cccnc5N)nc5ccc(-n6cccn6)nc54)ccc32)cn1 [Compound 38, N-[(1S)-5-[2-(2-aminopyridin-3-yl)-5-(pyrazol-1-yl)imidazo[4,5-b]pyridin-3-yl]-2,3-dihydro-1H-inden-1-yl]-6-methoxypyridine-3-carboxamide]
0.0699	0.283	2.99	4.78	–	–	–	CCOC(=O)N1CCC(N[C@H]2CCc3cc(-n4c(-c5cccnc5N)nc5ccc(-n6cccn6)nc54)ccc32)CC1 [Compound 289]
0.0494	0.329	1.27	3.48	–	–	–	Cn1ccc(C(=O)N[C@H]2CCc3cc(-n4c(-c5cccnc5N)nc5ccc(-n6cccn6)nc54)ccc32)n1 [Compound 13, (S)—N-(5-(2-(2-aminopyridin-3-yl)-5-(1H-pyrazol-1-yl)-3H-imidazo[4,5-b]pyridin-3-yl)-2,3-dihydro-1H-inden-1-yl)-1-methyl-1H-pyrazole-3-carboxamide]
–	–	–	> 10	0.101	> 1	1.48	CN(C)C(=O)N1CCC(N[C@H]2CCc3cc(-n4c(-c5cccnc5N)nc5ccc(-n6cccn6)nc54)ccc32)CC1 [Compound 394]
0.011	0.049	0.123	0.914	–	–	–	Nc1ncccc1-c1nc2ccc(-n3cccn3)nc2n1-c1ccc2c(c1)CC[C@@H]2NC(=O)c1cncc(F)c1 [Compound 32, (S)—N-(5-(2-(2-aminopyridin-3-yl)-5-(1H-pyrazol-1-yl)-3H-imidazo[4,5-b]pyridin-3-yl)-2,3-dihydro-1H-inden-1-yl)-5-fluoronicotinamide]
0.0162	0.107	0.0492	1.51	–	–	–	C#Cc1ccc(C(=O)N[C@H]2CCc3cc(-n4c(-c5cccnc5N)nc5ccc(-n6cccn6)nc54)ccc32)cn1 [Compound 55, (S)—N-(5-(2-(2-aminopyridin-3-yl)-5-(1H-pyrazol-1-yl)-3H-imidazo[4,5-b]pyridin-3-yl)-2,3-dihydro-1H-inden-1-yl)-6-ethynylnicotinamide]
–	–	–	4.21	0.0109	0.108	2.73	Cc1ccc(C(=O)N[C@H]2CCc3cc(-n4c(-c5ccccc5F)nc5ccc(-n6cccn6)nc54)ccc32)cn1 [Compound 401]
0.0051	0.143	0.0105	1.07	–	–	–	COc1nccc(C(=O)N[C@H]2CCc3cc(-n4c(-c5cccnc5N)nc5ccc(-n6cccn6)nc54)ccc32)c1C [Compound 284]
0.00955	0.0741	0.141	1.4	–	–	–	Nc1ncccc1-c1nc2ccc(-n3cccn3)nc2n1-c1ccc2c(c1)CC[C@@H]2NC(=O)c1ccnc(C(F)F)c1 [Compound 44, (S)—N-(5-(2-(2-aminopyridin-3-yl)-5-(1H-pyrazol-1-yl)-3H-imidazo[4,5-b]pyridin-3-yl)-2,3-dihydro-1H-inden-1-yl)-2-(difluoromethyl)isonicotinamide]
0.0488	0.261	3.43	3.62	–	–	–	Nc1ncccc1-c1nc2ccc(-n3nccn3)nc2n1-c1ccc2c(c1)CC[C@@H]2NC(=O)c1cncnc1 [Compound 59, (S)—N-(5-(2-(2-aminopyridin-3-yl)-5-(2H-1,2,3-triazol-2-yl)-3H-imidazo[4,5-b]pyridin-3-yl)-2,3-dihydro-1H-inden-1-yl)pyrimidine-5-carboxamide]
–	–	–	2.73	0.0149	0.196	0.423	Nc1ncccc1-c1nc2ccc(-n3cccn3)nc2n1-c1ccc2c(c1)CC[C@@H]2NC1CCc2cnccc21 (single isomer, unassigned) [Compound 474]
0.215	> 1	4.03	> 10	–	–	–	Nc1ncccc1-c1nc2ccc(-n3cccn3)nc2n1-c1ccc2c(c1)CC[C@@H]2NC(=O)C1COC1 [Compound 15, (S)—N-(5-(2-(2-aminopyridin-3-yl)-5-(1H-pyrazol-1-yl)-3H-imidazo[4,5-b]pyridin-3-yl)-2,3-dihydro-1H-inden-1-yl)oxetane-3-carboxamide]
0.051	0.57	1.07	4.38	–	–	–	Nc1ncccc1-c1nc2ccc(-n3cccn3)nc2n1-c1ccc2c(c1)CC[C@@H]2NC1CCN(C(=O)c2ccccc2)CC1 [Compound 275]
0.0113	0.408	0.343	8.43	–	–	–	Nc1ncccc1-c1nc2ccc(-n3cccn3)nc2n1-c1ccc2c(c1)CC[C@@H]2NC(=O)c1ccnc2c1CCO2 [Compound 225]
